Experimental data taken from US4505929A, “Sulfur-substituted diphenyl ethers having antiviral activity” (The Dow Chemical Company, priority 1982, dated 1985).
≈ marks a conversion by molar mass, not a printed value. Read-outs that look alike come from different tables or passages of the source.

How the values were obtained:
Format in all cases: cell-based
[1] = test system: Coxsackie A21 virus (Cox A21); assay: Tissue culture antiviral test (HeLa cells), Cox A21; conditions: 48 and 72 hours post-treatment, read-out: Lowest concentration necessary to cause a 50 percent reduction in cytopathic effect, Cox A21
Experimental: (§1) Monolayered HeLa cells in 16 millimeter (mm) tissue culture dishes were treated with 1 ml of culture medium (Eagles medium supplemented with fetal calf serum) containing subject compound at an appropriate concentration or containing no compound at all. Culture media such as those described herein are more fully described in standard texts, as for example, Kuchler's Biochemical Methods in Cell Culture and Virology, Dowden, Hutchinson and Ross, Inc., Stroudsberg, PA (1977). Following treatment, cells were challenged with 0.05 ml of rhinovirus type 1A (RV-1A), rhinovirus type 2 (RV-2) or Coxsackie A21 virus (Cox A21) in culture medium. Some of the compounds were also tested against rhinovirus type 5 (RV-5), rhinovirus type 8 (RV-8) or rhinovirus type 64 (RV-64). Cell controls received no viruses.
(§2) ^xx Lowest concentration of the compound (μg/ml) necessary to caus
(§3) a 50 percent reduction in cytopathic effect.

[2] = test system: rhinovirus type 1A (RV-1A); assay: Tissue culture antiviral test (HeLa cells), RV-1A; conditions: Enterovirus, 48 and 72 hours post-treatment, read-out: Lowest concentration necessary to cause a 50 percent reduction in cytopathic effect, RV-1A
Experimental: as §1, §2, §3

[3] = Cytotoxicity to HeLa cells in tissue culture testing; conditions: human
Experimental: as §1
^x Cytotoxicity figures represent the concentration of the compound,
micrograms/milliliter (μg/ml) found to be toxic to the cell.
means "approximately "; "<<" "considerably less than " and "G.I." means

rhinovirus type 2 (RV-2) = assay: Tissue culture antiviral test (HeLa cells), RV-2; conditions: Enterovirus, 48 and 72 hours post-treatment, read-out: Lowest concentration necessary to cause a 50 percent reduction in cytopathic effect, RV-2
Experimental: as §1, §2, §3

[4] = test system: rhinovirus type 64 (RV-64); assay: Tissue culture antiviral test (HeLa cells), RV-64; conditions: Enterovirus, 48 and 72 hours post-treatment, read-out: Lowest concentration necessary to cause a 50 percent reduction in cytopathic effect, RV-64
Experimental: as §1, §2, §3

rhinovirus type 5 (RV-5) = assay: Tissue culture antiviral test (HeLa cells), RV-5; conditions: Enterovirus, 48 and 72 hours post-treatment, read-out: Lowest concentration necessary to cause a 50 percent reduction in cytopathic effect, RV-5
Experimental: as §1, §2, §3

rhinovirus type 8 (RV-8) = assay: Tissue culture antiviral test (HeLa cells), RV-8; conditions: Enterovirus, 48 and 72 hours post-treatment, read-out: Lowest concentration necessary to cause a 50 percent reduction in cytopathic effect, RV-8
Experimental: as §1, §2, §3

[5] = concentration found to be toxic to the cell, observed at 48 and 72 hours, read-out: Cytotoxicity

Row | SMILES | EC50 [1] [µg/mL] | EC50 [2] [µg/mL] | MCC [3, 5] [µg/mL] | EC50 (rhinovirus type 2 (RV-2)) [µg/mL] | EC50 [4] [µg/mL] | EC50 (rhinovirus type 5 (RV-5)) [µg/mL] | EC50 (rhinovirus type 8 (RV-8)) [µg/mL] | MCC ([3]; G.I. = growth inhibition: at the concentration shown the compound inhibited growth of the tissue culture, read-out: Cytotoxicity (G.I.)) [µg/mL]
1 | CS(=O)(=O)c1ccc(Oc2ccc(Cl)c(Cl)c2)c(C#N)c1 [Example 17, 2-(3,4-Dichlorophenoxy)-5-(methylsulfonyl)benzonitrile] | 12.5 (≈ 36.5 µM) | 12.5 (≈ 36.5 µM) | > 100 | 25 (≈ 73.1 µM) | – | – | – | –
2 | COc1ccc(Oc2ccc(S(C)(=O)=O)cc2)cc1 [Example 18, 4-(4-(Methylsulfonyl)phenoxy)-1-methoxybenzene] | 25 (≈ 89.8 µM) | 6.25 (≈ 22.5 µM) | > 50 | 12.5 (≈ 44.9 µM) | 12.5 (≈ 44.9 µM) | – | – | –
3 | Cc1cc(Oc2ccc(Cl)c(Cl)c2)ccc1S(C)(=O)=O [Example 19, 4-(3-Methyl-4-(methylsulfonyl)phenoxy)-1,2-dichlorobenzene] | – | < 3.12 | > 50 | 6.25 (≈ 18.9 µM) | < 3.12 | 12.5 (≈ 37.7 µM) | – | –
4 | CS(=O)(=O)c1ccc(Oc2ccc(Cc3ccccc3)cc2)cc1 [Example 20, 1-(4-(Methylsulfonyl)phenoxy)-4-(phenylmethyl)benzene] | 2.5 (≈ 7.39 µM) | 2.5 (≈ 7.39 µM) | 5 | 1.25 (≈ 3.69 µM) | 2.5 (≈ 7.39 µM) | 5 (≈ 14.8 µM) | 5 (≈ 14.8 µM) | –
5 | CS(=O)(=O)c1ccc(Oc2ccc(O)cc2)cc1 [Example 21, 4-(4-(Methylsulfonyl)phenoxy)phenol] | – | ~25 (≈ 94.6 µM) | 25 | ~25 (≈ 94.6 µM) | – | – | – | –
6 | CS(=O)(=O)c1ccc(Oc2ccc(OC(F)(F)C(Cl)Cl)cc2)cc1 [Example 22, 1-(2,2-Dichloro-1,1-difluoroethoxy)-4-(4-(methylsulfonyl)phenoxy)benzene] | 0.625 (≈ 1.57 µM) | 2.5 (≈ 6.29 µM) | 2.5 | 1.25 (≈ 3.15 µM) | – | ~1.25 (≈ 3.15 µM) | – | –
7 | CS(=O)(=O)c1ccc(Oc2ccc(OCC#N)cc2)cc1 [Example 23, (4-(4-(Methylsulfonyl)phenoxy)phenoxy)acetonitrile] | 2.5 (≈ 8.24 µM) | 2.5 (≈ 8.24 µM) | 10 | 5 (≈ 16.5 µM) | 10 (≈ 33 µM) | 5 (≈ 16.5 µM) | 5 (≈ 16.5 µM) | –
8 | CCN(CC)CCOc1ccc(Oc2ccc(S(C)(=O)=O)cc2)cc1 [Example 24] | – | 1.25 (≈ 3.44 µM) | ≤ 20 | – | – | 2.5 (≈ 6.88 µM) | – | –
9 | O=S(=O)(c1ccc(Oc2ccc(Cl)c(Cl)c2)cc1)C(F)(F)F [Example 25, 4-(4-((Trifluoromethyl)sulfonyl)phenoxy)-1,2-dichlorobenzene] | < 3.12 | 12.5 (≈ 33.7 µM) | > 50 | 6.25 (≈ 16.8 µM) | – | – | – | –
10 | CCN(CC)S(=O)(=O)c1ccc(Oc2ccc(S(=O)(=O)C(F)(F)F)cc2)cc1 [Example 26, N,N-Diethyl-4-(4-((trifluoromethyl)sulfonyl)phenoxy)benzenesulfonamide] | ≤ 0.3 | 0.312 (≈ 0.714 µM) | 0.625 | 0.3 (≈ 0.686 µM) | 0.625 (≈ 1.43 µM) | 0.625 (≈ 1.43 µM) | ≤ 0.312 | –
11 | CSc1ccc(Oc2ccc([N+](=O)[O-])cc2)cc1 [Example 27, 1-(Methylthio)-4-(4-nitrophenoxy)benzene] | ≤ 6.25 | 6.25 (≈ 23.9 µM) | 12.5 | ≤ 6.25 | – | – | – | –
12 | CSc1ccc(Oc2ccc([N+](=O)[O-])cc2[N+](=O)[O-])cc1 [Example 28, 1-(4-(Methylthio)phenoxy)-2,4-dinitrobenzene] | ≤ 6.25 | ≤ 6.25 | – | < 6.25 | – | – | – | 50 to 100
13 | C[S+]([O-])c1ccc(Oc2ccc([N+](=O)[O-])cc2)cc1 (stereo not shown) [Example 29, 1-(Methylsulfinyl)-4-(4-nitrophenoxy)benzene] | < 6.25 | ≤ 6.25 | 25 | ≤ 6.25 | – | – | – | –
14 | C[S+]([O-])c1ccc(Oc2ccc([N+](=O)[O-])cc2[N+](=O)[O-])cc1 (stereo not shown) [Example 30, 1-(4-(Methylsulfinyl)phenoxy)-2,4-dinitrobenzene] | 6.25 (≈ 19.4 µM) | – | 12.5 | ~6.25 (≈ 19.4 µM) | – | – | – | –
15 | CS(=O)(=O)c1ccc(Oc2ccc([N+](=O)[O-])cc2[N+](=O)[O-])cc1 [Example 31, 1-(4-(Methylsulfonyl)phenoxy)-2,4-dinitrobenzene] | ≤ 6.25 | ~12.5 (≈ 36.9 µM) | 25 | ~12.5 (≈ 36.9 µM) | – | – | – | –
16 | CS(=O)(=O)c1ccc(Oc2ccc([N+](=O)[O-])cc2)cc1 [Example 32, 1-(Methylsulfonyl)-4-(4-nitrophenoxy)benzene] | < 6.25 | 12.5 (≈ 42.6 µM) | 50 | ≤ 6.25 | – | – | – | –
